Patent publication US7772428B2, “Creatine hydroxycitric acids salts and methods for their production and use in individuals” (Northern Innovations and Formulations, priority 2005, dated 2010)
Like-named read-outs stand apart in the source and are kept apart here.

Columns and labels:
Bioavailability = conditions: stated in words, Example 1
[1] = Stability (in water and acidic solutions); conditions: stated in words, Example 1
ATP citrate lyase = biological target: T1, ATP citrate lyase (Homo sapiens, UniProt P53396); conditions: cited from earlier work
T1 sequence (P53396 1-1101): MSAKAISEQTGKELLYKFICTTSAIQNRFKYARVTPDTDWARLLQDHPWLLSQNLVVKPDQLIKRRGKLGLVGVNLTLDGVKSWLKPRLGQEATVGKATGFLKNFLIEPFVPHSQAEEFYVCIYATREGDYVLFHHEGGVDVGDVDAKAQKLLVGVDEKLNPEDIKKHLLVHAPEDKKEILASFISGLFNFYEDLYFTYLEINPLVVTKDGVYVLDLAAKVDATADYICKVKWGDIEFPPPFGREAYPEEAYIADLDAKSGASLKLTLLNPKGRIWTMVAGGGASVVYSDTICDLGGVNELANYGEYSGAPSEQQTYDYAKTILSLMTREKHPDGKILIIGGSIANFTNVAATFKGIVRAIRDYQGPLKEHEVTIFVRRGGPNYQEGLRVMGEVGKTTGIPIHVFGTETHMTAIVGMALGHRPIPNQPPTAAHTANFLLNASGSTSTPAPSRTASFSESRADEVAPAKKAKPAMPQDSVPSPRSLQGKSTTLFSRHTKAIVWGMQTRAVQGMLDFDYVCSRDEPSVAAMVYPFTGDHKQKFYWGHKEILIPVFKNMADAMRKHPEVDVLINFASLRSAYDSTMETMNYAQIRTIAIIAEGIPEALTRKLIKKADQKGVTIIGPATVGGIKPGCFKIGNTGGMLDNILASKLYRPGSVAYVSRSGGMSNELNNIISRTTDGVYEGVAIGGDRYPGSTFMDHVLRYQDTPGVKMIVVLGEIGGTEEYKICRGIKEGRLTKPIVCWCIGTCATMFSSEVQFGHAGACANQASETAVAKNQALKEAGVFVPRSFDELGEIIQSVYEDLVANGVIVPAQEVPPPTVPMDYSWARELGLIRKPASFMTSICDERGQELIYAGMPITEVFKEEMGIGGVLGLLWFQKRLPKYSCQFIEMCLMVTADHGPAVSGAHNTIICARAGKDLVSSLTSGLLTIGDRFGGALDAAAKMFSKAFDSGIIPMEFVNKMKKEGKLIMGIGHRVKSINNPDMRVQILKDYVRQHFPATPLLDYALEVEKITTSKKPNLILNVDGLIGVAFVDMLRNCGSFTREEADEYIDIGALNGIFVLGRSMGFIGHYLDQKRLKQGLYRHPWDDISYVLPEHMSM

[2] = daily doses of about 20 g of creatine for 5-7 days; cited from earlier work
[3] = in vivo

Row | Compound | bioavailability (Bioavailability) | stability [1] | other results
1 | CN(CC(=O)O)C(=N)N.CN(CC(=O)O)C(=N)N.O.O=C(O)CC(O)(C(=O)O)C(O)C(=O)[O-].[K+] (stereo not shown) [Dicreatine (mono) potassium hydroxycitrate monohydrate] | bioavailable | stable | –
2 | Tricreatine hydroxycitrate monohydrate | bioavailable | stable | –
3 | O=C(O)CC(O)(C(=O)O)C(O)C(=O)O (stereo not shown) [Hydroxycitric acid] | – | – | activity of ATP citrate lyase (ATP citrate lyase): inhibit
4 | CN(CC(=O)O)C(=N)N [creatine] | – | – | increase of total creatine content in the muscle [2]: 10-25%
5 | CN(CC(=O)O)C(=N)N.O.O=C([O-])CC(O)(C(=O)[O-])C(O)C(=O)O.[K+].[K+] (stereo not shown) [(Mono)-creatine dipotassium hydroxycitrate monohydrate] | – | – | bioavailability [3]: bioavailable
